Counter-ions that a name gives are not always drawn.
Columns and labels:
lysozyme = experiment: Protein deposition inhibition on contact lenses (lysozyme, BCA method); details: lenses soaked overnight in test solution (additives 1 percent w/v in phosphate buffer), then lysozyme 37 degrees C for 12 hours
Protocol: Contact lenses were soaked test solutions overnight. Afterwards, lysozyme was added to the tubes and warmed to 37 degrees C. for 12 hours. […] The lenses were assayed for protein deposition by the BCA method and detected on an HP PDA Spectrophotometer. Results were reported in ug/lens. […] The control was phosphate buffer and sodium chloride.

[1] = Reduced preservative binding to contact lenses (radio-labeled C14-PHMB, gamma counter); details: 1 percent w/v in phosphate buffer, 12 hours at 37 degrees C; for Preservative (C14-PHMB) binding, Average: average of lens A and B
Excerpt: Results were reported in ug/lens. […] The control was phosphate buffer and sodium chloride.

radio-labeled lysozyme = details: 1 percent w/v in phosphate buffer, 12 hours at 37 degrees Celsius
Protocol: Contact lenses were soaked and heated in test solutions to which a radio-labeled lysozyme was present in a known amount for a period of 12 hours at 37 degrees Celsius. The lenses were rinsed with distilled water in order to remove residual solution. The lenses were then assayed for protein deposition using a Beckman BioGamma I counter. Results were reported in ug/lens.
Choline chloride was a 1 percent w/v solution. The matrix control was phosphate buffer and sodium chloride.

C. albicans [2] = experiment: In vitro microbicidal activity, 0.2% phosphate buffer with PHMB (Example 4); format: cell-based; details: pH 7.2
C. albicans [3] = experiment: In vitro microbicidal activity, 0.1% phosphate buffer with PHMB and hydrogen peroxide (Example 3B); format: cell-based; details: additive 1%, PHMB 0.0001%, hydrogen peroxide 0.0060%; for C albicans log reduction: pH 7.0, 4 hours at room temperature; for Improvement (log reduction versus buffer control): pH 7.0, 4 hours, buffer control 0.41
Protocol: The solutions were made isotonic with sodium chloride and preserved with polyhexamethylene biquanide at 0.0001% and hydrogen peroxide at 0.0060%. Dequest […] was added as a stabilizer. The pH was adjusted to 7.0 with either 1 N sodium hydroxide. […] Subsequently, an aliquot of each solution was serial diluted onto agar plates and incubated for 48 hours at elevated temperatures. At the conclusion of the incubation period the plates are examined for the development of colonies. The log reduction was determined based on a comparison to the inoculum control. The following table provides the results of the in vitro studies.

[4] = additive 0.5%, 0.2% phosphate buffer, PHMB 0.0001%, 4 hours at room temperature
[5] = additive 0.5%, 0.2% phosphate buffer, PHMB 0.0001%, 4 hours, buffer control 0.99

Row | SMILES | Preservative (C14-PHMB) binding, Average [1] [ug/lens] | Preservative (C14-PHMB) binding, Lens A [1] [ug/lens] | Preservative (C14-PHMB) binding, Lens B [1] [ug/lens] | C albicans log reduction (C. albicans [2]; [4]) [log] | Improvement (log reduction versus buffer control) (C. albicans [2]; [5]) | other results
1 | C[N+](C)(C)CCO.[Cl-] [Choline Chloride] | 14.5 | 18 | 11 |  |  | ug lysozyme per lens (lysozyme): 4.1 ug/lens; Protein deposition, Average (radio-labeled lysozyme; average of lens A and B): 12 ug/lens; Protein deposition, LensA (radio-labeled lysozyme; lens A): 14 ug/lens; Protein deposition, LensB (radio-labeled lysozyme; lens B): 9 ug/lens
2 | C[N+](C)(C)CC(=O)O [betaine HCI, Betaine HCl] | 7 | 6 | 8 | 1.37 | 0.38 | ug lysozyme per lens (lysozyme): 2.44 ug/lens
3 | O=C(O)CN(CCO)CCO [bicine, N,N-Bis(2-hydroxyethyl)-glycline] |  |  |  |  |  | C albicans log reduction (C. albicans [3]): 0.75 log; Improvement (log reduction versus buffer control) (C. albicans [3]): 0.34
4 | OCCN(CCO)C(CO)(CO)CO [bis-tris, Bis-(2-hydroxyethyl)imino-tns (hydroxymethyl) methane] |  |  |  |  |  | C albicans log reduction (C. albicans [2]): 1.21 log; Improvement (log reduction versus buffer control) (C. albicans [2]): 0.22
5 | C[N+](C)(C)CC(O)CC(=O)[O-] (centres unmarked) [carnitine, Carnitine] | 11 | 9 | 13 | 1.28 | 0.29 | 
6 | C[N+](C)(C)CCO [choline, Choline] |  |  |  | 2.24 | 1.25 | 
7 | CN(CC(=O)O)C(=N)N [creatine, Creatine] |  |  |  | 1.72 | 0.73 | 
8 | CN1CC(=O)NC1=N [creatinine, Creatinine] |  |  |  |  |  | C albicans log reduction (C. albicans [3]): 1.42 log; Improvement (log reduction versus buffer control) (C. albicans [3]): 1.01
9 | O=C(O)CNC(CO)(CO)CO [tricine, N-tris(hydroxymethyl)methyl glycine] |  |  |  | 1.33 | 0.34 | 
10 | CCN(CC)CC [triethylamine, Triethylamine] |  |  |  | 1.64 | 0.65 | 

— patent US10138384B2, “Ophthalmic and contact lens solutions using bicine” (priority 2000, dated 2018)
